Test: A2B permeability (Papp) in MDCK-MDR1 cell monolayers
Type: in vitro ADME
Conditions: dog, MDCK-MDR1 monolayer, apical to basolateral (A-B), 10 μM test compound, HBSS pH 7.4, duplicate
Protocol: Permeability Data for Compounds was Collected Using the Following Experimental Procedure:
MDCK-MDR1 cells obtained from the NIH (Rockville, Md., USA) are used between passage numbers 6-30. Cells are seeded onto Millipore Multiscreen Transwell plates at 3.4×10^5 cells/cm2. The cells are cultured in DMEM and media is changed on day 3. On day 4 the permeability study is performed. Cell culture and assay incubations are carried out at 37° C. in an atmosphere of 5% CO2 with a relative humidity of 95%. On the day of the assay, the monolayers are prepared by rinsing both apical and basolateral surfaces twice with Hanks Balanced Salt Solution (HBSS) at the desired pH warmed to 37° C. Cells are then incubated with HBSS at the desired pH in both apical and basolateral compartments for 40 min to stabilise physiological parameters.
The dosing solutions are prepared by diluting test compound with assay buffer to give a final test compound concentration of 10 μM (final DMSO concentration of 1% v/v). The fluorescent integrity marker lucifer yellow is also included in the dosing solution. Analytical standards are prepared from test compound DMSO dilutions and transferred to buffer, maintaining a 1% v/v DMSO concentration.
Typical assay buffer is composed of supplemented HBSS pH 7.4 but a range of other buffers and pH values can be used.
For assessment of A-B permeability, HBSS is removed from the apical compartment and replaced with test compound dosing solution. The apical compartment insert is then placed into a companion plate containing fresh buffer (containing 1% v/v DMSO). For assessment of B-A permeability, HBSS is removed from the companion plate and replaced with test compound dosing solution. Fresh buffer (containing 1% v/v DMSO) is added to the apical compartment insert, which is then placed into the companion plate.
At 60 min the apical compartment inserts and the companion plates are separated and apical and basolateral samples diluted for analysis.
Test compound permeability is assessed in duplicate. Compounds of known permeability characteristics are run as controls on each assay plate.
Test and control compounds are quantified by LC-MS/MS cassette analysis using a 7-point calibration with appropriate dilution of the samples. Cyprotex generic analytical conditions are used. The starting concentration (CO) is determined from the dosing solution and the experimental recovery calculated from CO and both apical and basolateral compartment concentrations.
The integrity of the monolayer throughout the experiment is checked by monitoring lucifer yellow permeation using fluorimetric analysis. Lucifer yellow permeation is high if monolayers have been damaged. If a lucifer yellow Papp value is above a pre-defined threshold in one well, but the derived Papp result for test compound or marker compound in that well is qualitatively similar to that determined in the remaining replicate well (within the lucifer yellow threshold) then, based upon the scientific judgment of the responsible scientist, the cell monolayer may be considered acceptable. If this is not the case, then the result from the affected monolayer is excluded and an n=1 result is reported, or the compound may be retested. If lucifer yellow Papp values are above the threshold in both replicate wells for a test compound, the compound is re-tested. If this re-occurs upon repeat in both wells then toxicity or inherent fluorescence of the test compound is assumed. No further experiments are performed in this instance.
The permeability coefficient (Papp) for each compound is calculated from the following equation: […]
Where dQ/dt is the rate of permeation of the drug across the cells, CO is the donor compartment concentration at time zero and A is the area of the cell monolayer. C0 is obtained from analysis of the dosing solution.

SMILES	Papp A→B at 60 min, 10 μM
CCn1cc(C(=O)N2CCOCC2)c(=O)c2cc(OC3Cc4ccccc4C3)cnc21 [Example 1, 1-Ethyl-6-indan-2-yloxy-3-(morpholine-4-carbonyl)-1,8-naphthyridin-4-one]	2.19 ×10⁻⁶ cm/s
CCn1cc(C(=O)N2CCOC(C)(C)C2)c(=O)c2cc(OC3Cc4ccccc4C3)cnc21 [Example 4, 3-(2,2-dimethylmorpholine-4-carbonyl)-1-ethyl-6-indan-2-yloxy-1,8-naphthyridin-4-one]	1.26 ×10⁻⁶ cm/s
CCn1cc(C(=O)N2C[C@H](C)O[C@@H](C)C2)c(=O)c2cc(OC3Cc4ccccc4C3)cnc21 [Example 6, 3-[(2S,6S)-2,6-dimethylmorpholine-4-carbonyl]-1-ethyl-6-indan-2-yloxy-1,8-naphthyridin-4-one]	1.7 ×10⁻⁶ cm/s
CCn1cc(C(=O)N2C[C@@H](C)O[C@H](C)C2)c(=O)c2cc(OC3Cc4ccccc4C3)cnc21 [Example 7, 3-[(2R,6R)-2,6-dimethylmorpholine-4-carbonyl]-1-ethyl-6-indan-2-yloxy-1,8-naphthyridin-4-one]	1.79 ×10⁻⁶ cm/s
CCn1cc(C(=O)N2CC(C)(C)OC(C)(C)C2)c(=O)c2cc(OC3Cc4ccccc4C3)cnc21 [Example 8, 1-Ethyl-6-indan-2-yloxy-3-(2,2,6,6-tetramethylmorpholine-4-carbonyl)-1,8-naphthyridin-4-one]	2.65 ×10⁻⁶ cm/s
CCn1cc(C(=O)N2[C@H](C)COC[C@@H]2C)c(=O)c2cc(OC3Cc4ccccc4C3)cnc21 [Example 10, 3-[(3R,5S)-3,5-dimethylmorpholine-4-carbonyl]-1-ethyl-6-indan-2-yloxy-1,8-naphthyridin-4-one]	1.99 ×10⁻⁶ cm/s
CCn1cc(C(=O)N2C3COCC2C3)c(=O)c2cc(OC3Cc4ccccc4C3)cnc21 [Example 16, 1-Ethyl-6-indan-2-yloxy-3-(3-oxa-6-azabicyclo[3.1.1]heptane-6-carbonyl)-1,8-naphthyridin-4-one]	2.06 ×10⁻⁶ cm/s
CCn1cc(C(=O)N2C[C@H]3C[C@@H]2CO3)c(=O)c2cc(OC3Cc4ccccc4C3)cnc21 [Example 17, 1-Ethyl-6-indan-2-yloxy-3-[(1R,4R)-2-oxa-5-azabicyclo[2.2.1]heptane-5-carbonyl]-1,8-naphthyridin-4-one]	0.87 ×10⁻⁶ cm/s
CCn1cc(C(=O)N2C3CCC2COC3)c(=O)c2cc(OC3Cc4ccccc4C3)cnc21 [Example 18, 1-Ethyl-6-indan-2-yloxy-3-(3-oxa-8-azabicyclo[3.2.1]octane-8-carbonyl)-1,8-naphthyridin-4-one]	1.41 ×10⁻⁶ cm/s
CCn1cc(C(=O)N2C3CCCC2COC3)c(=O)c2cc(OC3Cc4ccccc4C3)cnc21 [Example 20, 1-Ethyl-6-indan-2-yloxy-3-(3-oxa-9-azabicyclo[3.3.1]nonane-9-carbonyl)-1,8-naphthyridin-4-one]	2.01 ×10⁻⁶ cm/s
CCn1cc(C(=O)N2CC3(CCOCC3)C2)c(=O)c2cc(OC3Cc4ccccc4C3)cnc21 [Example 23, 1-Ethyl-6-indan-2-yloxy-3-(7-oxa-2-azaspiro[3.5]nonane-2-carbonyl)-1,8-naphthyridin-4-one]	1.24 ×10⁻⁶ cm/s
CCn1cc(C(=O)N2CC3COCC(C3)C2)c(=O)c2cc(OC3Cc4ccccc4C3)nnc21 [Example 65, 8-Ethyl-3-indan-2-yloxy-6-(3-oxa-7-azabicyclo[3.3.1]nonane-7-carbonyl)pyrido[2,3-c]pyridazin-5-one]	0.98 ×10⁻⁶ cm/s

The next lines start with the values.

Papp A→B at 60 min, 10 μM	SMILES
2.56 ×10⁻⁶ cm/s	CCn1cc(C(=O)N2CCO[C@H](C)C2)c(=O)c2cc(OC3Cc4ccccc4C3)cnc21 [Example 2, 1-Ethyl-6-indan-2-yloxy-3-[(2R)-2-methylmorpholine-4-carbonyl]-1,8-naphthyridin-4-one]
3.41 ×10⁻⁶ cm/s	CCn1cc(C(=O)N2C[C@@H](C)O[C@@H](C)C2)c(=O)c2cc(OC3Cc4ccccc4C3)cnc21 [Example 5, 3-[(2R,6S)-2,6-dimethylmorpholine-4-carbonyl]-1-ethyl-6-indan-2-yloxy-1,8-naphthyridin-4-one]
3.83 ×10⁻⁶ cm/s	CCn1cc(C(=O)N2[C@H](C)COC[C@H]2C)c(=O)c2cc(OC3Cc4ccccc4C3)cnc21 [Example 11, 3-[(3R,5R)-3,5-dimethylmorpholine-4-carbonyl]-1-ethyl-6-indan-2-yloxy-1,8-naphthyridin-4-one]
1.79 ×10⁻⁶ cm/s	CCn1cc(C(=O)N2CC3CCC(C2)O3)c(=O)c2cc(OC3Cc4ccccc4C3)cnc21 [Example 19, 1-Ethyl-6-indan-2-yloxy-3-(8-oxa-3-azabicyclo[3.2.1]octane-3-carbonyl)-1,8-naphthyridin-4-one]
1.56 ×10⁻⁶ cm/s	CCn1cc(C(=O)N2CCOCC2)c(=O)c2cc(OC3Cc4ccccc4C3)ncc21 [Example 26, 1-Ethyl-6-indan-2-yloxy-3-(morpholine-4-carbonyl)-1,7-naphthyridin-4-one]
4.78 ×10⁻⁶ cm/s	CCn1cc(C(=O)N2CCOCC2)c(=O)c2cc(OC3Cc4ccccc4C3)nnc21 [Example 52, 8-Ethyl-3-indan-2-yloxy-6-(morpholine-4-carbonyl)pyrido[2,3-c]pyridazin-5-one]
1.55 ×10⁻⁶ cm/s	CCn1cc(C(=O)N2CC3CCC(C2)O3)c(=O)c2cc(OC3Cc4ccccc4C3)nnc21 [Example 63, 8-Ethyl-3-indan-2-yloxy-6-(8-oxa-3-azabicyclo[3.2.1]octane-3-carbonyl)pyrido[2,3-c]pyridazin-5-one]

Source: patent US12275732B2, “Cyclic compounds as receptor modulating therapeutics and methods and uses thereof” (Bionomics Limited, priority 2018, dated 2025)
